Measured values as given in patent US9192559B2, “Compositions” (Givaudan SA, priority 2006, dated 2015).

How the values were obtained:
[1] = test system: Aspergillus niger ATCC 16404 spores; assay: Sporicidal effect of test compounds in water; type: cell-based; conditions: 0.1% test compound in water; for Sporicidal effect (reduction of spore counts), in words: 7 days
Experimental: Aspergillus niger ATCC 16404 spores are added to water to obtain a density of 3×10^5 spores/ml.
In order to prepare the spores, the test strain is grown for 5 days on potato dextrose agar at room temperature. The spores are harvested with a solution containing 0.1% Tween 80, peptone 0.1% and NaCl 0.85% and the spore concentration is adjusted to the density indicated above.
Test compounds are dissolved in dipropyleneglycol to a concentration of 20%.
These stock solutions are added to 10 ml aliquots of the spore suspension to obtain a final concentration of the test compounds of 0.1%. The sporicidal effect is shown by a reduction of spore counts after 7 days.
The reduction factor is determined as follows. Aliquots of the above prepared suspension of microorganisms (here: spore suspension prepared as described above) are plated on a suitable agar medium (see above) and the developing colonies are counted both for samples with test compound and for a negative probe (water). The count of the negative control is divided by the count of the test compound and thereby the reduction factor is determined. A negative control (water) accordingly has a reduction factor of 1 (no effect on the microorganism).

[2] = test system: Aspergillus niger ATCC 16404 spores; assay: Sporicidal activity in a preservative-free oil-in-water emulsion skin cream; type: cell-based; conditions: 0.1% 4-hydroxybenzaldehyde, 0% diol, listed as benzaldehyde derivative
Experimental: (§1) A preservative-free oil-in-water emulsion skin cream is used. Test samples of cream are made up to contain different amounts of diol compounds and/or benzaldehyde derivatives. The diol compound and the benzaldehyde derivatives is added to an aliquot of 10 g of the cream in 50 ml tubes in a concentration as shown in the table below. After addition of the preservative/preservative enhancer, the cream is thoroughly mixed to achieve a homogeneous distribution. The cream is then stored for 1-3 days to equilibrate at room temperature (in order to achieve a homogenous partitioning of compounds between oil and water phase).
(§2) For testing of sporicidal effect, to each sample 100 μl of a spore suspension of Aspergillus niger ATCC 16404 containing 3×10^7 spores/ml (prepared as described in example 1) is added.
(§3) After regular test intervals, samples of 1 g cream are removed and added to 20 ml of a neutralizer solution containing 0.2% lecithin, 2% Tween 80 and 0.5% NaCl. These dilutions are vigorously shaken for 10 min until the cream is dissolved, and then aliquots of this solution are spread plated on potato dextrose agar containing 0.2% Tween 80. After 48 h to 72 h the number of surviving colony forming units (and therefore surviving spores) are counted.
The count of the negative control is divided by the count of the probe and thereby the reduction factor is determined.

A. niger spores = assay: Activity against A. niger spores in skin cream Cremor basalis; type: cell-based, Aspergillus niger
Experimental: as §1, §2, §3
The example is performed as described in example 2 except for the following changes:
The preservative-free cosmetic cream for application to the human skin is Cremor basalis (commercially available from Fagron GmbH, Barsbüttel, Germany).

Structure (SMILES): C=CCCCCCCCCO [9-decenol]
- Sporicidal effect (reduction of spore counts), in words [1]: significant sporicidal effect

Structure (SMILES): O=Cc1ccc(O)cc1 [4-hydroxybenzaldehyde]
- reduction factor 7d fungal spores [2]: no sporicidal effect
- Sporicidal effect (reduction of spore counts), in words [1]: No significant reduction of spore counts
- Reduction factor fungal spores, 7d (A. niger spores; 0.5% 4-hydroxybenzaldehyde on its own): 57.6
- Reduction factor fungal spores, 7d (A. niger spores; no added diol, 0.125% 4-HBA): 5.5

Structure (SMILES): CCCCCCC(O)CO (centres unmarked) [1,2-Octandiol, 1,2-octanediol]
- Reduction factor fungal spores, 7d (A. niger spores; preservative 0.25%, no 4-HBA): 2.2

Structure (SMILES): COc1ccc(C=O)cc1 [4-methoxy-benzaldehyde]
- Sporicidal effect (reduction of spore counts), in words [1]: No significant reduction of spore counts

Structure (SMILES): CC(CO)CO [2-Methyl-1,3-propandiol, 2-Methyl-1,3-propanediol]
- Reduction factor fungal spores, 7d (A. niger spores; preservative 2%, no 4-HBA): 3.3
- Reduction factor fungal spores, 7d (A. niger spores; preservative 4%, no 4-HBA): 25.9

Structure (SMILES): CC(C)c1ccc(CO)cc1 [Cuminic alcohol]
- Spores/ml ([1]; after 7 days): >1.2 × 10^5 Spores/ml
- Reduction factor ([1]; after 7 days, count of negative control / count of test compound): <2

Structure (SMILES): CC(CC=O)CCc1ccccc1 (centres unmarked) [Mefranal, 3-methyl-5-phenylpentanal]
- Sporicidal effect (reduction of spore counts), in words [1]: significant sporicidal effect

Structure (SMILES): CCCCC(CC)COCC(O)CO (centres unmarked) [3-(2-ethyl-hexyloxy)-1,2-propandiol, 3-(2-ethylhexyloxy)propane-1,2-diol]
- Reduction factor fungal spores, 7d (A. niger spores; preservative 0.25%, no 4-HBA): 3.9
- Reduction factor fungal spores, 7d (A. niger spores; preservative 0.5%, no 4-HBA): 57.6
